Test results published in patent US8008525B2, “Receptor function regulating agent” (Takeda Pharmaceutical Company Limited, priority 2003, dated 2011).

Legend:
[1] = target: T1, human 14273 receptor (Homo sapiens, UniProt Q5NUL3); test: Test Example 1: regulating effect for 14273 receptor function (agonist effect), change in intracellular calcium level by FLIPR; assay type: cell-based; conditions: CHO cell line (No. 104) expressing human 14273 receptor, change of fluorescent intensity after 35 seconds
T1 construct: expressed in transfected cells
T1 sequence (Q5NUL3 1-361): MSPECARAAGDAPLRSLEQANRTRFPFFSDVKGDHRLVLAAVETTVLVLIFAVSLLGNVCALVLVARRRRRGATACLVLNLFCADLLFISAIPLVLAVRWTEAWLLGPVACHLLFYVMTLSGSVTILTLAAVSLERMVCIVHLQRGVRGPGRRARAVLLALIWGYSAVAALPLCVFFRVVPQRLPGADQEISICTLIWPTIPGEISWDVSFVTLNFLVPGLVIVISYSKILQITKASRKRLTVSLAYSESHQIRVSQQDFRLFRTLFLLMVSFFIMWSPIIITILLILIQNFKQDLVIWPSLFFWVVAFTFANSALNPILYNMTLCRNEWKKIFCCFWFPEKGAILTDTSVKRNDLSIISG
Protocol: CHO cell lines (No. 104) in which a human 14273 receptor has expressed was diluted to contain 3×10^4/100 μl cells, and dispensed in Black walled 96-well plate (Costar) at a density of 100 μl/well, followed by culturing overnight in a CO2 incubator. A change in intracellular calcium level was measured using FLIPR (Molecular Device). The method is described as below. 50 μg of Fluo-3AM (DOJIN) was dissolved in 21 μl of DMSO (DOJIN) and an equal volume of 20% pluronic acid (Molecular Probes) was added thereto, followed by mixing them. The mixture was added to 10.6 ml of the assay buffer [which is prepared by adding 10 ml of a solution, which is prepared by adding 20 ml of 1 M HEPES (pH 7.4, DOJIN) to 1 L of HBSS (Invitrogen), dissolving 710 mg of probenecid (Sigma) in 5 ml of 1 N NaOH, and further adding 5 ml of the above-mentioned HBSS/HEPES solution and mixing it.] supplemented with 105 μl of fetal bovine serum to prepare a fluorescent dye solution. The medium of the cell plate was removed, the fluorescent dye solution was dispensed in 100 μl each per well. The culturing was performed in a CO2 incubator for 1 hour to incorporate the fluorescent dye into the cells. The cells after culturing were washed with the assay buffer. The compounds to be added to the cells were diluted to each concentration with a buffer solution to which CHAPS (DOJIN) was added in 0.015%, and dispensed in a plate for the test sample. Following the pretreatment above, a change in intracellular calcium level after addition of the compound was determined with FLIPR to investigate the agonist effect. An EC50 value was calculated from dose-reaction curve using the change of fluorescent intensity after 35 seconds from the reaction initiation.

[2] = system: 3T3-L1 adipocytes; test: Test Example 2: suppression of lipolysis (glycerol production) in differentiated 3T3-L1 adipocytes; assay type: cell-based, mouse; conditions: treated 45 minutes, isoproterenol 1×10^−10 M, compound 40 μM and 20 μM (FIG. 14)
Protocol: Influence on lipolysis was investigated with use of mouse fibroblast-like cell line 3T3-L1 cells that can differentiate to adipocyte. […] The 3T3-L cells were plated on a plate and cultured to become confluent. The cells were then treated for 48 hours in the medium containing 10 μg/ml of insulin, 0.5 mM of 3-isobutyl-1-methylxanthine (IBMX) and 2.5 μM of dexamethasone to induce differentiation into adipocytes. The culturing was continued for further 11 days. After the 3T3-L1 cells were differentiated into adipocytes, a change in the amount of glycerol produced after lipolysis was assayed. After the cells were washed with modified Krebs-Ringer buffer, they were treated with the compounds for 45 minutes, and the supernatant was then recovered. The glycerol content in the supernatant was determined using a Free Glycerol Determination Kit (Sigma).

[3] = system: AtT-20 cells; test: Test Example 3: suppression of CRF-induced ACTH secretion in AtT-20 cells; assay type: cell-based, mouse; conditions: 10 μM of compound; 100 nM CRF; 90 minutes; adherent AtT-20 substrain
Protocol: Influence on ACTH secretion from mouse pituitary corticotrophic cell line AtT-20 cells was analyzed. […] This adherent AtT-20 cell substrain was cultured on a poly-D-lysine-coated 48-well plate at a density of 1×10^5 cells/well for 2 nights, which was provided for assay. […] After washing the cells once with this buffer, a predetermined concentration of the compound was added thereto, followed by addition of a buffer containing 100 nM of a corticotropin-releasing factor (CRF), and followed by culturing at 37° C. for 90 minutes in a CO2 incubator. Then, the plate was gently stirred, then centrifuged at 1200 rpm for 5 minutes at room temperature and the buffer was recovered from the intermediate layer. The ACTH concentration was determined using an ACTH assay kit (Mitsubishi Medical, ACTH IRMA “Yuka”).

Row | Compound | EC50 [1] [µM] | amount of glycerol production increased by isoproterenol stimulation (lipolysis) [2] | amount of glycerol production increased by isoproterenol stimulation (lipolysis) ([2]; listed as Reference example 16) | lowering of the amount of ACTH secretion increased by CRF stimulation [3] [%]
1 | O=C(O)CCc1ccc(OC2CCc3ccccc32)c(Cl)c1 (centres unmarked) [Reference Example 16, 3-Chloro-4-[(2,3-dihydro-1H-inden-1-yl)oxy]benzenepropanoic acid] | ≤ 10 | inhibitory effect | lowering the amount of the glycerol production | –
2 | O=C(O)CCc1ccc(OCc2cccc(Oc3ccc(F)cc3)c2)c(F)c1 [Example 161, 3-(3-fluoro-4-{[3-(4-fluorophenoxy)benzyl]oxy}phenyl)propanoic acid] | ≤ 10 | – | – | 49
